Data published in patent US5328909A, “Cyclopropenone derivatives” (Mitsubishi Kasei Corporation, priority 1991, dated 1994).
Counter-ions that a name gives are not always drawn. Like-named read-outs stand apart in the source and are kept apart here.

Target: T1, m-calpain (Rattus norvegicus, UniProt Q07009)
T1 construct: m-calpain was purified from rat brain; from tissue; host or cells: rat brain
T1 sequence (Q07009 20-700 limits assumed): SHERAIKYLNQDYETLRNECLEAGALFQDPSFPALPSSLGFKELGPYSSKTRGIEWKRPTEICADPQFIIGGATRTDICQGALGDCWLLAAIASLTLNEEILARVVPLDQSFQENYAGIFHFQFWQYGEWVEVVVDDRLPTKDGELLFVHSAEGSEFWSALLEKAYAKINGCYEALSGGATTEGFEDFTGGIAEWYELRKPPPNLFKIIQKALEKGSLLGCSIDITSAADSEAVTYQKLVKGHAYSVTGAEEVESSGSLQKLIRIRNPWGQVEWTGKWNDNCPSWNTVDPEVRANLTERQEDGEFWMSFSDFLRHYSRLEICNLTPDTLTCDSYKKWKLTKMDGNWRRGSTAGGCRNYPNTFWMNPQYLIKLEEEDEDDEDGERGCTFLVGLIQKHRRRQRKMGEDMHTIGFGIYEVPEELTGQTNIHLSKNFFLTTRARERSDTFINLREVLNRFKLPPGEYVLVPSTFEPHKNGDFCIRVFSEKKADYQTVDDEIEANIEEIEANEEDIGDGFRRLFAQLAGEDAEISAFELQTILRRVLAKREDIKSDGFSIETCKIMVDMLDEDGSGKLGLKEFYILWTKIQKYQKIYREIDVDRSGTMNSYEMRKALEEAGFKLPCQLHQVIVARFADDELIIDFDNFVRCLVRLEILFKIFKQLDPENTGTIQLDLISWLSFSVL
T1 sequence (Q64537 1-270 partner): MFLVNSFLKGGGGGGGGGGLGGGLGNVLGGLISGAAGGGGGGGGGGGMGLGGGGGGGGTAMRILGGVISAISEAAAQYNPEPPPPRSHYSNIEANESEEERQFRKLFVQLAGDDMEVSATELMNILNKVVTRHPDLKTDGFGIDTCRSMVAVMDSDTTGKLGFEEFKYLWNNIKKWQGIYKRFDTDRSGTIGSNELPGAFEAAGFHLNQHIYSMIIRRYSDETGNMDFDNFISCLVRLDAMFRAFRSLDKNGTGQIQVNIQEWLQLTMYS
Assay: Thiol protease inhibitory activity against m-calpain purified from rat brain
Assay type: biochemical
Method: Inhibitory activity against papain (P-3125, Sigma) and cathepsin B (C-6286, Sigma) was assayed according to the method described in a literature [Biochemical Journal, 201, 189 (1982)]. Capthesin L was purified from rat kidney according to the method in a literature [Journal of Biochemistry, 100, 35 (1986)], and the inhibitory activity against it was assayed in the same manner as described in the above literature for cathepsin B. Further, m-calpain was purified from rat brain according to a known method [Journal of Biological Chemistry, 254, p.3210 (1984)] and the inhibitory activity against it was assayed by a method described in a literature [Journal of Biological Chemistry, 259, 12489 (1984)]. The results are showing in Tables 3 and 4. It is evident from Tables 3 and 4 that the compounds in the present invention have a potent inhibitory activity against thiol proteases such as papain, cathepsin B, cathepsin L, m-calpain or the like.

[1] = Table 4, rat brain enzyme, read-out: Inhibitory activity against m-calpain IC50

IC50 [1] [nM] | Compound | IC50 [nM]
5000 | CC(C)C[C@H](NC(=O)OCc1ccccc1)C(=O)N[C@@H](Cc1ccccc1)C(O)c1cc1=O (stereo partly drawn) [9 (No. 26), 2-[(2S)-2-((S)-2-benzyloxycarbonylamino-4-methylvalerylamino)-1-hydroxy-3-phenylpropyl]cyclopropenone] | –
1700 | CC(C)C[C@H](NC(=O)OCc1ccccn1)C(=O)N[C@@H](C(C)C)[C@@H](O)c1c(-c2ccccc2)c1=O [29 (No. 97), 2-[(1s, 2S)-1-hydroxy-3-methyl-2-{(S)-4-methyl-2-(2-pyridylmethoxycarbonylamino)valerylamino}butyl]-3-phenylcyclopropenone hydrochloride] | –
1300 | CC(C)C[C@H](NC(=O)OCc1ccncc1)C(=O)N[C@@H](C(C)C)[C@@H](O)c1c(-c2ccccc2)c1=O [31 (No. 99), 2-[(1S, 2S)-1-hydroxy-3-methyl-2-{(S)-4-methyl-2-(4-pyridylmethoxycarbonylamino)valerylamino}butyl]-3-phenylcyclopropenone hydrochloride] | –
1200 | CC(C)C[C@H](NC(=O)OCc1ccncc1)C(=O)N[C@@H](C(C)C)[C@H](O)c1c(-c2ccccc2)c1=O [32 (No. 99), 2-[(1R, 2S)-1-hydroxy-3-methyl-2-{(S)-4-methyl-2-(4-pyridylmethoxycarbonylamino)valerylamino}butyl]-3-phenylcyclopropenone hydrochloride] | –
– | CC(C)C[C@H](NC(=O)Oc1ccccc1)C(=O)N[C@@H](C(C)C)[C@@H](O)c1c(-c2ccccc2)c1=O [33 (No. 102), 2-[(1S, 2S)-1-hydroxy-3-methyl-2-((S)-4-methyl-2-phenoxycarbonylamino)valerylamino]-3-phenylcyclopropenone] | 840
2100 | CC(C)CCC(=O)N[C@@H](CC(C)C)C(=O)N[C@@H](C(C)C)[C@@H](O)c1c(-c2ccccc2)c1=O [37 (No. 114), 2-[(1S, 2S)-1-hydroxy-2-((S)-2-isohexanoylamino-4-methylvalerylamino)-3-methylbutyl]-3-phenylcyclopropenone] | –
4000 | CCCCCCCCCCCC(=O)N[C@@H](CC(C)C)C(=O)N[C@@H](C(C)C)[C@@H](O)c1c(-c2ccccc2)c1=O [38 (No. 120), 2-[(1S, 2S)-1-hydroxy-2-((S)-2-lauroylamino-4-methylvalerylamino)^- 3-methylbutyl]-3-phenylcyclopropenone] | –
1900 | CC(C)C[C@H](NC(=O)CCC1CCCCC1)C(=O)N[C@@H](C(C)C)[C@@H](O)c1c(-c2ccccc2)c1=O [39 (No. 124), 2-[(1S, 2S)-2-{(S)-2-(3-cyclohexylpropionylamino)-4-methylvalerylamino} -1-hydroxy-3-methylbutyl]-3-phenylcyclopropenone] | –
2600 | CC(C)C[C@H](NC(=O)C1CCCCC1)C(=O)N[C@@H](C(C)C)[C@@H](O)c1c(-c2ccccc2)c1=O [40 (No. 129), 2-[(1S, 2S)-2-((S)-2-cyclohexylcarbonylamino-4-methylvalerylamino)-1-hydroxy-3-methylbutyl]-3-phenylcyclopropenone] | –
1400 | CC(C)C[C@H](NC(=O)Cc1ccccc1)C(=O)N[C@@H](C(C)C)[C@@H](O)c1c(-c2ccccc2)c1=O [41 (No. 132), 2-[(1S, 2S)-1-hydroxy-3-methyl-2-((S)-4-methyl-2-phenylacetylaminovalerylamino)butyl]-3-phenylcyclopropenone] | –
1500 | CC(C)C[C@H](NC(=O)CCc1ccccc1)C(=O)N[C@@H](C(C)C)[C@@H](O)c1c(-c2ccccc2)c1=O [42 (No. 133), 2-[(1S, 2S)-1-hydroxy-3-methyl-2-{(S)-4-methyl-2-(3-phenylpropionylamino)valerylamino}butyl]-3-phenylcyclopropenone] | –
1700 | CC(C)C[C@H](NC(=O)CCCc1ccccc1)C(=O)N[C@@H](C(C)C)[C@@H](O)c1c(-c2ccccc2)c1=O [43 (No. 134), 2-[(1S, 2S)-1-hydroxy-3-methyl-2-{(S)-4-methyl-2-(4-phenylbutyrylamino)valerylamino}butyl]-3-phenylcyclopropenone] | –
3000 | CC(=O)CCC(=O)N[C@@H](CC(C)C)C(=O)N[C@@H](C(C)C)[C@@H](O)c1c(-c2ccccc2)c1=O [44 (No. 137), 2-[(1S, 2S)-1-hydroxy-3-methyl-2-(S)-4-methyl-2-(4-oxovalerylamino)valerylamino]-3-phenylcyclopropenone] | –
1000 | CC(C)C[C@H](NC(=O)CCC(=O)c1ccccc1)C(=O)N[C@@H](C(C)C)[C@@H](O)c1c(-c2ccccc2)c1=O [45 (No. 140), 2-[(1S, 2S)-2-{(S)-2-(3-benzoylpropionylamino)-4-methylvalerylamino}-1-hydroxy-3-methylbutyl]-3-phenylcyclopropenone] | –
630 | CC(C)C[C@H](NC(=O)COc1ccccc1)C(=O)N[C@@H](C(C)C)[C@@H](O)c1c(-c2ccccc2)c1=O [48 (No. 148), 2-[(1S, 2S)-1-hydroxy-3-methyl-2-((S)-4-methyl-2-phenoxyacetylaminovalerylamino)butyl]-3-phenylcyclopropenone] | –
1200 | CC(C)C[C@H](NC(=O)COc1ccccc1Cl)C(=O)N[C@@H](C(C)C)[C@@H](O)c1c(-c2ccccc2)c1=O [50 (No. 152), 2-[(1S, 2S)-2-{(S)-2-(2-chlorophenoxyacetylamino)-4-methylvalerylamino}-1-hydroxy-3-methylbutyl]-3-phenylcyclopropenone] | –
750 | CC(C)C[C@H](NC(=O)COc1ccc(Cl)cc1)C(=O)N[C@@H](C(C)C)[C@@H](O)c1c(-c2ccccc2)c1=O [51 (No. 154), 2-[(1S, 2S)-2-{(S)-2-(4-chlorophenoxyacetylamino)-4-methylvalerylamino}-1-hydroxy-3-methylbutyl]-3-phenylcyclopropenone] | –
740 | CC(C)C[C@H](NC(=O)COc1cccc(Cl)c1Cl)C(=O)N[C@@H](C(C)C)[C@@H](O)c1c(-c2ccccc2)c1=O [52 (No. 155), 2-[(1S, 2S)-2-{(S)-2-(2,3-dichlorophenoxyacetylamino)-4-methylvalerylamino}-1-hydroxy-3-methylbutyl]-3-phenylcyclopropenone] | –
2300 | COc1ccccc1OCC(=O)N[C@@H](CC(C)C)C(=O)N[C@@H](C(C)C)[C@@H](O)c1c(-c2ccccc2)c1=O [53 (No. 161)] | –
1100 | CC(C)C[C@H](NC(=O)COCc1ccccc1)C(=O)N[C@@H](C(C)C)[C@@H](O)c1c(-c2ccccc2)c1=O [54 (No. 166), 2-[(1S, 2S)-2-((S)-2-benzyloxyacetylamino-4-methylvalerylamino)-1-hydroxy-3-methylbutyl]-3-phenylcyclopropenone] | –
800 | CC(C)C[C@H](NC(=O)CCOc1ccccc1)C(=O)N[C@@H](C(C)C)[C@@H](O)c1c(-c2ccccc2)c1=O [55 (No. 167), 2-[(1S, 2S)-1-hydroxy-3-methyl-2-{(S)-4-methyl-2-(3-phenoxypropionylamino)valerylamino}butyl]-3-phenylcyclopropenone] | –
2200 | CC(C)C[C@H](NC(=O)CSc1ccccc1)C(=O)N[C@@H](C(C)C)[C@@H](O)c1c(-c2ccccc2)c1=O [56 (No. 168), 2-[(1S, 2S)-1-hydroxy-3-methyl-2-((S)-4-methyl-2-phenylthioacetylaminovalerylamino}butyl]-3-phenylcyclopropenone] | –
3100 | CC(C)C[C@H](NC(=O)CCS(=O)(=O)c1ccccc1)C(=O)N[C@@H](C(C)C)[C@@H](O)c1c(-c2ccccc2)c1=O [57 (No. 170)] | –

Compound | IC50 [1] [nM] | IC50 [nM]
CC(C)COC(=O)N[C@@H](CC(C)C)C(=O)N[C@@H](C(C)C)[C@@H](O)c1c(-c2ccccc2)c1=O [20 (No. 72), 2-[(1S, 2S)-1-hydroxy-2-((S)-2-isobutoxycarbonylamino-4-methylvalerylamino)-3-methylbutyl]-3-phenylcyclopropenone] | 1300 | –
CC(C)COC(=O)N[C@@H](CC(C)C)C(=O)N[C@@H](C(C)C)[C@H](O)c1c(-c2ccccc2)c1=O [21 (No. 72), 2-[(1R, 2S)-1-hydroxy-2-((S)-2-isobutoxycarbonylamino-4-methylvalerylamino)-3-methylbutyl]-3-phenylcyclopropenone] | 3000 | –
